Laboratory results as given in patent publication US20140349923A1, “Compositions And Methods For Treating Diabetes And/Or Obesity” (GlaxoSmithKline Intellectual Property (No. 2) Limited, priority 2012, published 2014).

Test: Chronic obesity efficacy study in DIO mice, chow ingredients with or without exendin-4 AlbudAb
Format: in vivo, DIO C57BL/6 mice
Description: Male diet induced obese (DIO) C57BL/6 mice (40-50 g body weight) and lean C57BL/6 mice (Taconic, Hudson, N.Y.) were used for the chronic obesity efficacy studies. The DIO mice were group housed and fed a high fat diet (60% fat by kcal) by the vendor from the time of weaning. Upon receipt at the GlaxoSmithKline Research Triangle Park facility, all mice were single-housed and maintained at constant temperature (approximately 22° C.) with 12 hr light/dark cycle (lights on from 5:00 AM to 5:00 PM). The mice were given ad libitum access to food (Research Diets D12451, 45 kcal % fat for DIO; Lab Diet 5001, 13.5 kcal % fat for lean) and water. All animal protocols were approved by the institutional animal care and use committee at GlaxoSmithKline in Research Triangle Park, N.C. The BCE, OFS, pectin, oleic acid, Nutella containing chows were prepared by mixing in a Hobart mixer with a whisk attachment and stored at 4° C. until used. Chows were fed to mice in glass jars with wire mesh column inserts (Unifab Corp., Kalamazoo, Mich.). […] All combination then were evaluated with and without co-treatment with exendin-4-albudAb. […] Body weights (BW) were measured on day −7 and then every 3 to 4 days for the duration of the study. On day 24, body composition was measured using quantitative magnetic resonance (QMR). […]

CCCCCCCC/C=C\CCCCCCCC(=O)O [oleic acid]
weight loss (% change in body weight) (26 days): −4.3% | effect on weight compared to vehicle (Student's t-test): statistically significant weight loss
